Measurements taken from patent US9879303B2, “Chromogenic glucuronidase substrates and uses” (Glycosynth Limited, priority 2013, dated 2018).
Where a name gives a salt, the structure may show the parent alone.

Tested on: E. coli clinical isolates
Assay: screen of strains on agar plates (CPS ID 3 or Columbia agar)
Format: cell-based
Parameters: key to colour: Red, Green, Black or Purple mean strong colour; Red, Green, Black or Purple mean strong colour; Red, Green, Black or Purple mean strong colour; Red, Green, Black or Purple mean strong colour; +/− means less colour than strong; Tr means a trace of colour, less than +/−; — means no colour
Settings: for colour: 37° C. 18 hours
Description: In order to obtain a fuller picture of the sensitivity of the substrates, they were screened with 100 different clinical isolates of E. coli in a liquid medium containing FAC. The isolates were chosen at random from the Microbiology Department, Freeman Hospital, Newcastle Upon Tyne, UK. The effectiveness of the new substrates was compared with three other media which all contained indoxyl-β-D-glucuronides. One was a commercial medium, CPS ID 3 (bioMérieux SA, Lyon, France). […] This medium was employed as a control. Among the β-D-glucuronidase producing strains of E. coli there is a large variation in the quantity of the enzyme produced and it is almost certain that the CPS ID 3 medium has been rigorously optimised to allow good growth of all the target organisms and maximum expression of the target enzymes. Therefore, two indoxyl glucuronides, X-β-D-glucuronide CHA salt and Rose-β-D-glucuronide CHA salt were also tested in a simple agar medium to allow a direct comparison of the sensitivity of these Indoxyl glucuronides when used in a medium that has not been optimised for the growth of the target organism. The comparison of the results for Rose-β-D-glucuronide and the CPS ID 3 medium was of particular significance as the commercial medium also uses Rose-β-D-glucuronide for the detection of E. coli. For consistency, the four glucuronides were all chosen as their CHA salts. As already stated, it is not anticipated that the salt form is critical to their performance. Currently. X-β-D-glucuronide is often used as either the CHA salt or the sodium salt. Brenner and colleagues [K. P. Brenner et al, Appl. Environ. Microbiol., 59, 3534-3544, (1993)] found no difference in the performance of the CHA and sodium salt forms with their application using indoxyl-β-D-glucuronide, neither in respect of colour development nor in the recovery of E. coli.
The two indoxyl glucuronides used produce insoluble endpoints following hydrolysis, as does the CPS ID 3 medium. It was therefore necessary to test these two substrates on agar plates. In contrast, catechol-β-D-glucuronide (1) and DHN-β-D-glucuronide (2b) give much more soluble endpoints best suited to liquid media and were therefore tested in a broth medium. Each broth was prepared using proteose peptone (Oxoid, Basingstoke, UK) (2 g), NaCl (1 g) and FAC (100 mg) in DI water (180 mL). This mixture was autoclaved and cooled to room temperature before being dispensed into bijoux (100×1.8 mL). Catechol β-D-glucuronide CHA salt (1) or DHN-β-D-glucuronide CHA salt (2b) (60 mg) were each dissolved in water (20 mL) and filtered to sterilize before being aseptically dispensed into successive bijoux (0.2 mL) containing the broth solution. The broth/substrate solutions were then inoculated with bacterial suspensions made up to 0.5 McFarland standard (2 μL per bijoux). X-β-D-glucuronide CHA salt (Glycosynth Ltd, Warrington, UK) (10 mg) was dissolved in NMP (200 μL). Rose-β-D-glucuronide CHA salt (Glycosynth Ltd, Warrington, UK) (20 mg) was dissolved in NMP (200 μL). These solutions were then added to Columbia agar (Oxoid, Basingstoke, UK) (100 mL) and inoculated with bacterial suspensions made up to 0.5 McFarland standard (1 μL). The plates and broths were incubated at 37° C. for 18 hours in air.

[1] = 100 E. coli strains after 18 h incubation

O=C(O)[C@H]1O[C@@H](Oc2c[nH]c3cc(Cl)ccc23)[C@H](O)[C@@H](O)[C@@H]1O [Rose-β-D-glucuronide CHA salt, 6-chloro-3-indolyl β-D-glucuronide]
% Sensitivity [1]: 81% | Negative strains [1]: 19 | Positive strains [1]: 81 | colour (E. coli 260262P): Red | colour (E. coli 260280Z): Red | colour (E. coli 260310H): Red | colour (E. coli 260313A): — | colour (E. coli 260316T): — | colour (E. coli 260327V): Red | colour (E. coli 260330Y): Red | colour (E. coli 260333P): — | colour (E. coli 260345F): Red | colour (E. coli 260348K): Red | colour (E. coli 260354W): Red | colour (E. coli 260364H): — | colour (E. coli 260370C): Red | colour (E. coli 260375E): Red | colour (E. coli 260390B): — | colour (E. coli 260396Z): Red | colour (E. coli 260398Q): Red | colour (E. coli 260400N): — | colour (E. coli 260401Q): Red | colour (E. coli 260402H): Red | colour (E. coli 260404W): Red | colour (E. coli 260405P): Red | colour (E. coli 260406A): — | colour (E. coli 260406Y): Red | colour (E. coli 260407F): Red | colour (E. coli 260408C): Red | colour (E. coli 260411Z): Red | colour (E. coli 260412Q): Red | colour (E. coli 260414H): Red | colour (E. coli 260415Y): Red | colour (E. coli 260416W): — | colour (E. coli 260417P): Red | colour (E. coli 260422Y): Red | colour (E. coli 260424P): Red | colour (E. coli 260425A): Red | colour (E. coli 260426F): Red | colour (E. coli 260428T): Red | colour (E. coli 260431N): Red | colour (E. coli 260432E): Red | colour (E. coli 260433H): Red | colour (E. coli 260434Y): Red | colour (E. coli 260435W): Red | colour (E. coli 260436P): Red | colour (E. coli 260437A): Tr. Red | colour (E. coli 260438F): Red | colour (E. coli 260439C): Red | colour (E. coli 260440S): Red | colour (E. coli 260441G): Red | colour (E. coli 260458Y): Red | colour (E. coli 260459W): Red | colour (E. coli 260463D): Red | colour (E. coli 260464G): Red | colour (E. coli 260471B): — | colour (E. coli 260478N): — | colour (E. coli 260479Q): Red | colour (E. coli 260480M): Red | colour (E. coli 260481J): Red | colour (E. coli 260483R): — | colour (E. coli 260485D): Red | colour (E. coli 260486L): Red | colour (E. coli 260492J): Red | colour (E. coli 260494B): Red | colour (E. coli 260495R): — | colour (E. coli 260497D): Red | colour (E. coli 260502G): Red | colour (E. coli 260503Z): Red | colour (E. coli 260504N): Red | colour (E. coli 260505Q): — | colour (E. coli 260506E): Red | colour (E. coli 260508Y): Red | colour (E. coli 260509W): Red | colour (E. coli 260510R): Red | colour (E. coli 260511X): Red | colour (E. coli 260514G): — | colour (E. coli 260515Z): Red | colour (E. coli 260521S): Red | colour (E. coli 260522Z): Red | colour (E. coli 260532S): Red | colour (E. coli 260533G): Red | colour (E. coli 260536Q): Red | colour (E. coli 260537E): — | colour (E. coli 260538H): — | colour (E. coli 260539Y): Red | colour (E. coli 260541R): Red | colour (E. coli 260545G): Red | colour (E. coli 260547N): Red | colour (E. coli 260548Q): Red | colour (E. coli 260549E): Red | colour (E. coli 260553X): — | colour (E. coli 260554D): Red | colour (E. coli 260555L): Red | colour (E. coli 260563B): Red | colour (E. coli 260564R): Red | colour (E. coli 260578D): — | colour (E. coli 2603121P): — | colour (E. coli 2604399E): Red | colour (E. coli O157 non-toxigenic): — | colour of positive colonies (in words): red colonies
